Results: patent US10071068B2, “Sustained release oral dosage forms of an R-baclofen prodrug” (XENOPORT, INC., priority 2009, dated 2018)

Experiments:
[1] = FLODEX powder flowability (Flodex); type: physicochemical; details: for Flowdex: crystalline compound (1) lot, Table 2; for Flodex: neat powder, listed as Compound (1)
From the text: The flow of dry powders was characterized using a FLODEX™ Powder Flowability Index Test Instrument (Hanson Research Corporation, Chatsworth, Calif.). The instrument was equipped with a cylindrical metal reservoir, which holds the test powder prior to flow testing. The cylindrical reservoir has an inside diameter of 5.7 cm and a length of […]. The bottom end of the reservoir can be closed with removable metal discs. Each disc has a round orifice centered in the disc. Orifice diameters range from 4 mm to 10 mm in 1 mm increments, and from 10 mm to 34 mm in 2 mm increments. Prior to flow testing, the orifice is blocked. Powder is then placed over the blocked orifice. When the orifice is unblocked, powder can flow through the orifice under the force of gravity if the orifice diameter is sufficiently large. Powder that flows through small orifices is considered to have flow properties useful for tableting. For example, a Flodex measurement (Flodex) of less than about 24 mm is […] high-speed tableting operations at commercial scale. A Flodex less than about 20 mm is useful for high-speed tableting operations. A Flodex of 18 mm or less is considered especially useful for high speed tableting operations.
The Flodex is determined by first gently filling the reservoir with approximately 70 cc of test powder while the orifice at the bottom is blocked, while avoiding severe piling, and without vibrating or tapping the powder bed. Next, the orifice is unblocked. This can be accomplished by opening a shutter that is supplied with the instrument. Alternatively, if a shutter is not used, the powder-filled reservoir fitted with a disc can be set on a dry, flat surface to block the orifice. Then, slowly and evenly, the reservoir is lifted to allow the powders to flow. In either procedure, if the powder flows through the orifice, a clear channel is left within the powder bed. […] The flow test is conducted with various orifice sizes until the minimum orifice size for good flow is identified, which is referred to as the Flodex.

[2] = Particle size of compound (1) lots, wet and dry method; type: physicochemical
[3] = Bulk density, tap density and compressibility of powders; type: physicochemical; details: major component of Example 15 blend
[4] = dosed either orally or directly into the colon of a mammal; cited from earlier work
[5] = clinical trials (Gerson et al. 2009); cited from earlier work

CC(C)C(=O)O[C@@H](OC(=O)NC[C@H](CC(=O)O)c1ccc(Cl)cc1)C(C)C [Lot 4, (3R)-4-{[(1S)-2-Methyl-1-(2-methylpropanoyloxy)propoxy]carbonylamino}-3-(4-chlorophenyl)butanoic acid]
Flowdex [1]: 23 mm | Flodex ([1]; Lot 4): 24 mm | Particle size, Dry method, dv0.5 [2]: 11.09 μm | Particle size, Dry method, dv0.9 [2]: 102 μm | Particle size, Wet method, dv0.5 [2]: 3.35 μm | Particle size, Wet method, dv0.9 [2]: 40.47 μm

CC(C)C(=O)O[C@@H](OC(=O)NC[C@H](CC(=O)O)c1ccc(Cl)cc1)C(C)C [Compound (1), (3R)-4-{[(1S)-2-Methyl-1-(2-methylpropanoyloxy)propoxy]carbonylamino}-3-(4-chlorophenyl)butanoic acid]
Bulk Density [3]: 0.15 g/cc | bioavailability as R-baclofen [4]: high bioavailability | reflux episodes [5]: reduce reflux episodes

CC(C)C(=O)O[C@@H](OC(=O)NC[C@H](CC(=O)O)c1ccc(Cl)cc1)C(C)C [Lot 70, (3R)-4-{[(1S)-2-Methyl-1-(2-methylpropanoyloxy)propoxy]carbonylamino}-3-(4-chlorophenyl)butanoic acid]
Flowdex [1]: 26 mm | Flodex ([1]; Lot 70): 26 mm | Particle size, Dry method, dv0.5 [2]: 27.53 μm | Particle size, Dry method, dv0.9 [2]: 106.87 μm | Particle size, Wet method, dv0.5 [2]: 4.81 μm | Particle size, Wet method, dv0.9 [2]: 37.2 μm

CC(C)C(=O)O[C@@H](OC(=O)NC[C@H](CC(=O)O)c1ccc(Cl)cc1)C(C)C [Lot 71, (3R)-4-{[(1S)-2-Methyl-1-(2-methylpropanoyloxy)propoxy]carbonylamino}-3-(4-chlorophenyl)butanoic acid]
Flowdex [1]: 26 mm | Flodex ([1]; Lot 71): 26 mm | Particle size, Dry method, dv0.5 [2]: 17.64 μm | Particle size, Dry method, dv0.9 [2]: 107.48 μm | Particle size, Wet method, dv0.5 [2]: 22.17 μm | Particle size, Wet method, dv0.9 [2]: 63.02 μm
